SMILES strings stand for the structures.

For 28 compounds, AC1.4 results are on record in US20220332708A1 (Cytokinetics, Inc., priority 2021, published 2022).

The test deals with Bovine cardiac myofibrils. As to the kind of experiment: Dose-dependent myofibril ATPase modulation (calcium-buffered, pyruvate kinase and lactate dehydrogenase-coupled ATPase assay at pCa25). In kind it is biochemical. To be noted: concentration at which ATPase activity was 1.4-fold higher than the bottom of the dose curve, mean of a minimum of two independent tests. Here is the method:
In Vitro Model of Dose-Dependent Myofibril ATPase Modulation
Dose responses were measured using a calcium-buffered, pyruvate kinase and lactate dehydrogenase-coupled ATPase assay containing the following reagents (concentrations expressed are final assay concentrations): Potassium PIPES (12 mM), MgCl2 (2 mM), ATP (1 mM), DTT (1 mM), BSA (0.1 mg/ml), NADH (0.5 mM), PEP (1.5 mM), pyruvate kinase (4 U/ml), lactate dehydrogenase (8 U/ml), and antifoam (90 ppm). The pH was adjusted to 6.80 at 22° C. by addition of potassium hydroxide. Calcium levels were controlled by a buffering system containing 0.6 mM EGTA and varying concentrations of calcium, to achieve a free calcium concentration of 1×10^−4 M to 1×10^−8 M.
Bovine cardiac myofibrils were obtained by homogenizing the appropriate tissue in the presence of detergent. Such treatment removes membranes and majority of soluble cytoplasmic proteins but leaves intact cardiac sarcomeric acto-myosin apparatus. Concentrations of myofibrils were adjusted to achieve the necessary rate of ATP hydrolysis (typically 0.25-1.0 mg/ml).
Chemical entity dose responses were measured at the calcium concentration corresponding to 25% of maximal ATPase activity (pCa25), so a preliminary experiment was performed to test the response of the ATPase activity to free calcium concentrations in the range of 1×10^−4 M to 1×10^−8 M. Subsequently, the assay mixture was adjusted to the pCa25. Assays were performed by first preparing a dilution series of test chemical entity, each with an assay mixture containing potassium Pipes, MgCl2, BSA, DTT, pyruvate kinase, lactate dehydrogenase, myofibrils, antifoam, EGTA, CaCl2), and water. The assay was started by adding an equal volume of solution containing potassium Pipes, MgCl2, BSA, DTT, ATP, NADH, PEP, antifoam, and water. ATP hydrolysis was monitored by absorbance at 340 nm. The resulting dose response curve was fit by the 4 parameter equation y=Bottom+((Top−Bottom)/(1+((EC50/X)^Hill))). […] AC1.4 values reported in the table below are mean values based on a minimum of two independent tests.

As to `Cc1[nH]c(S(=O)(=O)N[C@H]2COc3ccc(Cl)cc3[C@@H]2O)cc1C(=O)N1CC(C)(C#N)C1` [Compound 75, N-((3S,4S)-6-chloro-4-hydroxychroman-3-yl)-4-(3-cyano-3-methylazetidine-1-carbonyl)-5-methyl-1H-pyrrole-2-sulfonamide], the AC1.4 is 0.5877 µM.

As to `Cc1[nH]c(S(=O)(=O)N[C@H]2C[C@H](c3cc(C(F)(F)F)ccn3)C2)cc1C(=O)N1CC(C)(C#N)C1` [Compound 58], the AC1.4 was 1.0081 µM.

On to `Cc1[nH]c(S(=O)(=O)N[C@@H]2Cc3ccc(Cl)cc3C2)cc1C(=O)N1CC(C)(C#N)C1` [Compound 69, (R)-N-(5-chloro-2,3-dihydro-1H-inden-2-yl)-4-(3-cyano-3-methylazetidine-1-carbonyl)-5-methyl-1H-pyrrole-2-sulfonamide], for which the AC1.4 is 0.166 µM.

Consider `Cc1[nH]c(S(=O)(=O)N[C@@H]2Cc3ccc(C(F)(F)F)cc3C2)cc1C(=O)N1CC(C)(C#N)C1` (single isomer, unassigned) [Compound 76], for which the AC1.4 came out at 0.1121 µM.

Turning to `Cc1[nH]c(S(=O)(=O)N[C@@H]2Cc3cc(F)c(Cl)cc3C2)cc1C(=O)N1CC(C(F)(F)F)C1` [Compound 93, (R)-N-(5-chloro-6-fluoro-2,3-dihydro-1H-inden-2-yl)-5-methyl-4-(3-(trifluoromethyl)azetidine-1-carbonyl)-1H-pyrrole-2-sulfonamide], the AC1.4 turned out to be 0.1626 µM.

Consider `CNc1cc2nc(C)[nH]c(=O)c2cc1S(=O)(=O)Nc1ccc(N2C[C@H](C)C[C@@H](C)C2)nc1` [Compound 8, N-(6-((3R,5R)-3,5-dimethylpiperidin-1-yl)pyridin-3-yl)-2-methyl-7-(methylamino)-4-oxo-3,4-dihydroquinazoline-6-sulfonamide], for which the AC1.4 was found to be 0.6695 µM.

Turning to `Cc1[nH]c(S(=O)(=O)NC23COc4cc(F)c(Cl)cc4C2C3)cc1C(=O)N1CC(C)(C#N)C1` (stereo not shown) [Compound 31, N-(6-chloro-5-fluoro-1,7b-dihydrocyclopropa[c]chromen-1a(2H)-yl)-4-(3-cyano-3-methylazetidine-1-carbonyl)-5-methyl-1H-pyrrole-2-sulfonamide], the AC1.4 was found to be 1.274 µM.

Turning to `Cc1[nH]c(S(=O)(=O)NC23COc4cc(F)c(Cl)cc4C2C3)cc1C(=O)N1CC(C#N)C1` (stereo not shown) [Compound 81, N-(6-chloro-5-fluoro-1,7b-dihydrocyclopropa[c]chromen-1a(2H)-yl)-4-(3-cyanoazetidine-1-carbonyl)-5-methyl-1H-pyrrole-2-sulfonamide], the AC1.4 was 1.194 µM.

For `Cc1[nH]c(S(=O)(=O)N[C@H]2Cc3cc(F)c(Cl)cc3C2)cc1C(=O)N1CC(C)(C#N)C1` (single isomer, unassigned) [Compound 84], the AC1.4 was found to be 0.303 µM.

Consider `Cc1[nH]c(S(=O)(=O)N[C@H]2Cc3cc(Cl)c(Cl)cc3[C@@]2(C)O)cc1C(=O)N1CC(C)(C#N)C1` (single isomer, unassigned) [Compound 92], for which the AC1.4 was 0.6294 µM.

In the case of `CNc1ccc(S(=O)(=O)Nc2ccc(N3C[C@H](C)C[C@@H](C)C3)nc2)cc1C(N)=O` (relative stereo) [Compound 3, 5-(N-(6-(trans-3,5-dimethylpiperidin-1-yl)pyridin-3-yl)sulfamoyl)-2-(methylamino)benzamide], the AC1.4 turned out to be 11.94 µM.

Turning to `COc1cc2nc(C)[nH]c(=O)c2cc1S(=O)(=O)Nc1ccc(N2C[C@H](C)C[C@@H](C)C2)nc1` [Compound 7, N-(6-((3R,5R)-3,5-dimethylpiperidin-1-yl)pyridin-3-yl)-7-methoxy-2-methyl-4-oxo-3,4-dihydroquinazoline-6-sulfonamide], the AC1.4 was 1.3592 µM.

In the case of `Cc1[nH]c(S(=O)(=O)N[C@@H]2CCc3c([nH]c4ccccc34)C2)cc1C(=O)NCC(F)(F)F` [Compound 45, (R)-2-methyl-5-(N-(2,3,4,9-tetrahydro-1H-carbazol-2-yl)sulfamoyl)-N-(2,2,2-trifluoroethyl)-1H-pyrrole-3-carboxamide], the AC1.4 turned out to be 0.4627 µM.

Turning to `Cc1[nH]c(S(=O)(=O)N[C@H]2C[C@H](c3cccc(Cl)c3)C2)cc1C(=O)N1CC(C)(C#N)C1` [Compound 50, N-((trans)-3-(3-chlorophenyl)cyclobutyl)-4-(3-cyano-3-methylazetidine-1-carbonyl)-5-methyl-1H-pyrrole-2-sulfonamide], the AC1.4 turned out to be 0.5466 µM.

In the case of `Cc1[nH]c(S(=O)(=O)N[C@@H]2CCc3cc(Cl)ccc3C2)cc1C(=O)N1CC(C)(C#N)C1` [Compound 67, (R)-N-(6-chloro-1,2,3,4-tetrahydronaphthalen-2-yl)-4-(3-cyano-3-methylazetidine-1-carbonyl)-5-methyl-1H-pyrrole-2-sulfonamide], the AC1.4 was 0.05605 µM.

For the compound `CNc1cc2c(cc1S(=O)(=O)N[C@H]1C[C@H](c3cc(C(F)(F)F)ccn3)C1)c(=O)[nH]c(=O)n2C` [Compound 59], the AC1.4 came to 0.4184 µM.

On to `Cc1[nH]c(S(=O)(=O)N[C@@H]2Cc3cc(Cl)c(Cl)cc3[C@@]2(C)O)cc1C(=O)N1CC(C)(C#N)C1` [Compound 82, 4-(3-cyano-3-methylazetidine-1-carbonyl)-N-((1R,2R)-5,6-dichloro-1-hydroxy-1-methyl-2,3-dihydro-1H-inden-2-yl)-5-methyl-1H-pyrrole-2-sulfonamide], for which the AC1.4 amounted to 0.6173 µM.

For the compound `Cc1[nH]c(S(=O)(=O)N[C@@H]2CCc3c([nH]c4ccccc34)C2)cc1C(=O)N1CC(C)(C#N)C1` [Compound 48, (R)-4-(3-cyano-3-methylazetidine-1-carbonyl)-5-methyl-N-(2,3,4,9-tetrahydro-1H-carbazol-2-yl)-1H-pyrrole-2-sulfonamide], the AC1.4 was determined as 0.04675 µM.

As for `Cc1[nH]c(S(=O)(=O)N[C@@H]2COc3cc(F)c(Cl)cc3C2)cc1C(=O)N1CC(C)(C#N)C1` [Compound 73, (S)-N-(6-chloro-7-fluorochroman-3-yl)-4-(3-cyano-3-methylazetidine-1-carbonyl)-5-methyl-1H-pyrrole-2-sulfonamide], the AC1.4 stood at 0.0793 µM.

With `CNc1cc2nc(C)[nH]c(=O)c2cc1S(=O)(=O)NCCc1cc2ccccc2[nH]1` [Compound 34], the AC1.4 amounted to 13.2484 µM.

For `Cc1[nH]c(S(=O)(=O)N[C@@H]2CCc3c([nH]c4ccccc34)C2)cc1C(=O)N1CC(C)(C)C1` [Compound 40, (R)-4-(3,3-dimethylazetidine-1-carbonyl)-5-methyl-N-(2,3,4,9-tetrahydro-1H-carbazol-2-yl)-1H-pyrrole-2-sulfonamide], the AC1.4 came out at 0.0608 µM.

On to `Cc1[nH]c(S(=O)(=O)N[C@H]2COc3cc(F)c(Cl)cc3C2)cc1C(=O)N1CC(C)(C#N)C1` [Compound 80, (R)-N-(6-chloro-7-fluorochroman-3-yl)-4-(3-cyano-3-methylazetidine-1-carbonyl)-5-methyl-1H-pyrrole-2-sulfonamide], for which the AC1.4 was found to be 13.1993 µM.

Regarding `Cc1[nH]c(S(=O)(=O)N[C@@H]2COc3ccc(Cl)cc3[C@@H]2O)cc1C(=O)N1CC(C#N)C1` [Compound 74, N-((3R,4S)-6-chloro-4-hydroxychroman-3-yl)-4-(3-cyanoazetidine-1-carbonyl)-5-methyl-1H-pyrrole-2-sulfonamide], the AC1.4 turned out to be 0.5684 µM.

`CNc1cc2nc(C)[nH]c(=O)c2cc1S(=O)(=O)NC(C)Cc1[nH]c2ccccc2c1C` (stereo not shown) [Compound 29, 2-Methyl-N-(1-(3-methyl-1H-indo1-2-yl)propan-2-yl)-7-(methylamino)-4-oxo-3,4-dihydroquinazoline-6-sulfonamide]: the AC1.4 worked out at 8.204 µM.

As for `Cc1[nH]c(S(=O)(=O)N[C@@H]2CCc3c([nH]c4ccccc34)C2)cc1C(=O)N1CCCCC1` [Compound 47, (R)-5-methyl-4-(piperidine-1-carbonyl)-N-(2,3,4,9-tetrahydro-1H-carbazol-2-yl)-1H-pyrrole-2-sulfonamide], the AC1.4 is 1.9857 µM.

For the compound `Cc1[nH]c(S(=O)(=O)NC23CC(c4ccccc4)(C2)C3)cc1C(=O)N1CC(C)(C#N)C1` [Compound 52, 4-(3-Cyano-3-methylazetidine-1-carbonyl)-5-methyl-N-(3-phenylbicyclo[1.1.1]pentan-l-yl)-1H-pyrrole-2-sulfonamide], the AC1.4 was determined as 1.4557 µM.

As for `CNc1cc2nc(C)[nH]c(=O)c2cc1S(=O)(=O)NC1CCc2c([nH]c3ccccc23)C1` (stereo not shown) [Compound 28, 2-Methyl-7-(methylamino)-4-oxo-N-(2,3,4,9-tetrahydro-1H-carbazol-2-yl)-3,4-dihydroquinazoline-6-sulfonamide], the AC1.4 was found to be 0.2504 µM.

On to `Cc1[nH]c(S(=O)(=O)N[C@@H]2Cc3cc(F)c(Cl)cc3C2)cc1C(=O)N1CC(C)(O)C1` [Compound 95, (R)-N-(5-chloro-6-fluoro-2,3-dihydro-1H-inden-2-yl)-4-(3-hydroxy-3-methylazetidine-1-carbonyl)-5-methyl-1H-pyrrole-2-sulfonamide], for which the AC1.4 is 0.9577 µM.
